# Measurements taken from patent US20120121545A1, “Pharmaceutical Composition For Bone Disease Treatment Or Countering Inflammation, Comprising Cartilage Stem Cells As An Active Principle” (CoreStem Co., Ltd., priority 2009, published 2012).
# Key:
# Format in all cases: in vivo, Sprague-Dawley rats
# [1] = test system: osteoarthritis-induced rats; assay: Change in knee joint thickness, osteoarthritis-induced rats; conditions: diclofenac sodium 2 mg/kg subcutaneously once a day for 84 days
# Procedure: One hundred and twenty (120) 6-week-old male Sprague-Dawley rats (SLC, Japan) were used for test after accommodation for 7 days. All the test animals were kept in a polycarbonate cage, four or five each, and reared in a laboratory with temperature (20-25° C.) and humidity (40-45%) controlled. The light/dark cycle was 12 hours:12 hours, and feed (Samyang Corporation, Korea) and drinking water well provided freely. All the test animals had been fasted for at least 18 hours before sacrificing. They were treated according to “Guide for the Care and Use of Laboratory Animals by Institute of Laboratory Animal Resources, Commission on Life Science, National Research Council, USA on 1996, Washington D.C.”. On day 7 after joint surgery, the rats were grouped into 7 groups as described in Table 4 based on joint thickness and body weight. 8 rats were selected from each group (56 in total) for test. […] The joint thickness of the rats in the control groups and test groups was measured using calipers. […] Percent change between the normal control group and the osteoarthritis-induced control group was calculated by Equation 1 in order to evaluate the degree of inducement of osteoarthritis. Also, percent change between the cell administration group and the osteoarthritis-induced control group was calculated by Equation 2 in order to more clearly represent the efficacy of the administered cells. […]
# [2] = test system: osteoarthritis-induced rats; assay: Change in maximum knee joint angle, osteoarthritis-induced rats; conditions: diclofenac sodium 2 mg/kg subcutaneously once a day for 84 days; after 84 days
# Procedure: One hundred and twenty (120) 6-week-old male Sprague-Dawley rats (SLC, Japan) were used for test after accommodation for 7 days. All the test animals were kept in a polycarbonate cage, four or five each, and reared in a laboratory with temperature (20-25° C.) and humidity (40-45%) controlled. The light/dark cycle was 12 hours:12 hours, and feed (Samyang Corporation, Korea) and drinking water well provided freely. All the test animals had been fasted for at least 18 hours before sacrificing. They were treated according to “Guide for the Care and Use of Laboratory Animals by Institute of Laboratory Animal Resources, Commission on Life Science, National Research Council, USA on 1996, Washington D.C.”. […]
# The administration groups of the drug and cell were sacrificed after 84 days. After taking out the right hind leg from the hip joint and removing nearby skin, connective tissues and muscles, the maximum knee joint angle was measured with the theoretical maximum as 0°. […]
# Percent change between the normal control group and the osteoarthritis-induced control group was calculated by Equation 1 in order to evaluate the degree of inducement of osteoarthritis. Also, percent change between the cell administration group and the osteoarthritis-induced control group was calculated by Equation 2 in order to more clearly represent the efficacy of the administered cells. […]
# [3] = test system: osteoarthritis-induced rats; assay: Histopathological analysis of knee cartilage: Mankin score; conditions: diclofenac sodium 2 mg/kg subcutaneously once a day for 84 days
# Procedure: (§1) One hundred and twenty (120) 6-week-old male Sprague-Dawley rats (SLC, Japan) were used for test after accommodation for 7 days. All the test animals were kept in a polycarbonate cage, four or five each, and reared in a laboratory with temperature (20-25° C.) and humidity (40-45%) controlled. The light/dark cycle was 12 hours:12 hours, and feed (Samyang Corporation, Korea) and drinking water well provided freely. All the test animals had been fasted for at least 18 hours before sacrificing. They were treated according to “Guide for the Care and Use of Laboratory Animals by Institute of Laboratory Animal Resources, Commission on Life Science, National Research Council, USA on 1996, Washington D.C.”. On day 7 after joint surgery, the rats were grouped into 7 groups as described in Table 4 based on joint thickness and body weight. 8 rats were selected from each group (56 in total) for test.
# (§2) The cells were suspended in CSBM at four different concentrations (high concentration: 9.6×10^6 cells/rat, intermediate high concentration: 4.8×10^6 cells/rat, intermediate low concentration: 2.4×10^6 cells/rat, low concentration: 1.2×10^6 cells/rat). […] For the normal group and the osteoarthritis-induced control group, only the CSBM was administered into the articular capsule.
# For histopathological observation and analysis of the cartilage Mankin score and cartilage thickness were measured (Table 9). Mankin score is frequently used to evaluate arthritis. A higher score is known to be related with higher inducement of osteoarthritis (Armstrong et al., 1994; Rezende et al., 2006).
# The articular capsule taken from the knee joint of each control group and test group was fixed for 5 days in 10% neutral-buffered formalin (NBF) and decalcified in decalcifying solution (24.4% formic acid, and 0.5 N sodium hydroxide). The decalcifying solution was replaced once a day for 5 days. After the decalcification, the median joint parts of the articular capsule were cut transversely and embedded in paraffin. After preparing 3-4 μm thick tissue sections, followed by deparaffinization and hydration, the cartilage was observed after hematoxylin & eosin (H&E) staining and safranin O staining (Camplejohn and Allard, 1988; Kahveci et al., 2000; Tran et al., 2000).
# Mankin score was measured by comparing damage to the knee joint tissue with that of the normal control group. Cartilage thickness of the tibia and the femur was measured by histomorphometry using an automatic image analyzer (DMI-300, DMI, Korea).
# Mankin Score is Given by the Sum.
# Percent change (%) between the cell administration group and the osteoarthritis-induced control group=[(Value of the cell administration group−Value of the osteoarthritis-induced control group)/Value of the osteoarthritis-induced control group]×100 Equation 2
# [4] = test system: osteoarthritis-induced rats; assay: Knee cartilage thickness by histomorphometry; conditions: diclofenac sodium 2 mg/kg subcutaneously once a day for 84 days
# Procedure: The articular capsule taken from the knee joint of each control group and test group was fixed for 5 days in 10% neutral-buffered formalin (NBF) and decalcified in decalcifying solution (24.4% formic acid, and 0.5 N sodium hydroxide). The decalcifying solution was replaced once a day for 5 days. After the decalcification, the median joint parts of the articular capsule were cut transversely and embedded in paraffin. […]
# Mankin score was measured by comparing damage to the knee joint tissue with that of the normal control group. Cartilage thickness of the tibia and the femur was measured by histomorphometry using an automatic image analyzer (DMI-300, DMI, Korea). […]
# [5] = test system: osteoarthritis-induced rats; assay: Growth of chondrocytes in knee cartilage (BrdU labelling); conditions: diclofenac sodium 2 mg/kg subcutaneously once a day for 84 days
# Procedure: as §1, §2
# Chondrocytes growing in the articular capsule were labeled with BrdU in order to investigate their growth due to the administration of the cartilage-derived stem cells. Since the cells labeled with BrdU are those grown after the injection of BrdU, the growth of chondrocytes can be analyzed.
# 5-Bromo-2′-deoxyuridine (50 mg/kg, BrdU, MP Biomedicals, OH, USA) diluted in physiological saline to a concentration of 2 mL/kg was intraabdominally injected once 72 hours before the sacrificing of the rats of the control groups and test groups. Then, immunohistochemical staining was performed using BrdU antibody (Hwang et al., 2000; Moore et al., 2005; Ganey et al., 2003; Ito et al., 1998; Tang et al., 2007).
# The expression pattern of BrdU was investigated using the Vector Elite ABC kit (Vector Lab. Inc., CA., USA). After washing the tissue with DPBS, reaction was performed in 3% hydrogen peroxide (H2O2) solution for 30 minutes at room temperature. After washing with DPBS, reaction was performed for 30 minutes using normal horse serum (1:100, Vector Lab. Inc., CA, USA) in order to prevent nonspecific reaction that might occur during the staining. […] The number of cells responding to BrdU antibody by 10% or more was counted. From a total of 100 chondrocytes on the articular surface of the tibia and the femur, the percentage of BrdU-positive cells was measured using an automatic image analyzer. […]
smiles,measurement,setting,value
"O=C(O)Cc1ccccc1Nc1c(Cl)cccc1Cl [Control drug, diclofenac sodium]",reduced knee joint thickness as compared to the osteoarthritis control group,[1],5.79%
same,Maximum knee joint angle,[2],60.75 ± 6.78 °
same,knee joint angle decreased as compared to the normal control group,[2],18.18%
same,"Mankin score of the femur, decrease as compared to the osteoarthritis-induced control group",[3],27.85%
same,Mankin score of the femur: Clones,[3],2.38 ± 0.92
same,Mankin score of the femur: Hypocellularity,[3],1.38 ± 0.52
same,Mankin score of the femur: Safranin O,[3],1.25 ± 0.46
same,Mankin score of the femur: Sum (Max = 12),[3],7.13 ± 1.36
same,Mankin score of the femur: Surface,[3],2.13 ± 0.35
same,"Mankin score of the tibia, decrease as compared to the osteoarthritis-induced control group",[3],20.59%
same,Mankin score of the tibia: Clones,[3],1.75 ± 0.71
same,Mankin score of the tibia: Hypocellularity,[3],1.63 ± 0.52
same,Mankin score of the tibia: Safranin O,[3],1.38 ± 0.74
same,Mankin score of the tibia: Sum (Max = 12),[3],6.75 ± 1.16
same,Mankin score of the tibia: Surface,[3],2.00 ± 0.53
same,"Knee cartilage thickness, Femur",[4],409.48 ± 69.80
same,"cartilage thickness of the femur, increase as compared to the osteoarthritis-induced control group",[4],35.11%
same,"cartilage thickness of the tibia, increase as compared to the osteoarthritis-induced control group",[4],68.81%
same,"Number of BrdU-positive cells/100 chondrocytes, Femur",[5],8.63 ± 4.03 /100 chondrocytes
same,"Number of BrdU-positive cells/100 chondrocytes, Tibia",[5],8.13 ± 3.52 /100 chondrocytes
same,"number of BrdU-positive cells on the articular surface of the femur, increase as compared to the osteoarthritis-induced control group",[5],9.52%
same,"number of BrdU-positive cells on the articular surface of the tibia, increase as compared to the osteoarthritis-induced control group",[5],1.56%
